Assay results from US9914722B2, “Compounds for treating spinal muscular atrophy” (PTC Therapeutics Inc., priority 2012, dated 2018).

What was measured:
[1] = test system: SMN2 full length and Δ7 mRNA; test: Endogenous SMN2 mRNA end-point semi-quantitative RT-PCR splicing assay in cultured cells; assay type: cell-based, human; details: 24 hr, FIG. 5; for SMN2 FL mRNA (gel band) / SMN2 Δ7 mRNA (gel band): GM03813 Type 1 SMA patient fibroblasts, increasing concentrations; for SMN2 alternative splicing: Type 1 SMA patient fibroblasts, rising concentrations
Method: Endogenous SMN2 mRNA End-Point Semi-Quantitative RT-PCR Splicing Assay in Cultured Cells
The endpoint reverse transcription-PCR splicing assay is used to visualize and quantify the levels of the SMN2 full length and Δ7 mRNA in primary cells and cell lines containing the SMN2 gene treated with a test compound.
Protocol. GM03813 SMA patient cells (5,000 cells/well) are seeded in 200 μL of cell culture medium (DMEM plus 10% FBS) in 96-well flat-bottom plates and the plate is immediately swirled to ensure proper dispersal of cells, forming an even monolayer of cells. Cells are allowed to attach for at least 4-6 hrs. Test compounds are serially diluted 3.16-fold in 100% DMSO to generate a 7-point concentration curve. A solution of test compound (1 μL, 200× in DMSO) is added to each test well and 1 μL DMSO is added to each control well. The plate is incu bated for 24 hrs in a cell culture incubator (37° C., 5% CO2, 100% relative humidity). The cells are then lysed in Cells-To-Ct lysis buffer and the lysate is stored at −80° C.
SMN FL and Δ7 mRNA are identified using the following primers in Table 6. These primers hybridize to a nucleotide sequence in exon 6 (SMN Forward C, SEQ ID NO. 11) (nucleotide 43 to nucleotide 63) and exon 8 (SMN Reverse C, SEQ ID NO. 12) (nucleotide 51 to nucleotide 73) common to human SMN1 and SMN2 mRNA. Since the SMA patient cells used in Example 4 contain only the SMN2 gene, RT-PCR can visualize and quantify only SMN2 full-length and SMN2 Δ7 mRNA.
To synthesize cDNA, 5 μL of lysate, 4 μL of 5× iScript reaction mix, 1 μL of reverse transcriptase, and 10 μL of water are combined and incubated 5 min at 25° C. followed by 30 min at 42° C., followed by 5 min at 85° C. The cDNA solution is stored at −20° C.
To perform endpoint PCR, 5 μL of cDNA, 0.2 μL of 100 μM forward primer, 0.2 μL of 100 μM reverse primer, and 22.5 μL of polymerase super mix are combined in a 96 well semiskirted PCR plate. PCR is carried out at the following temperatures for the indicated time: Step 1: 94° C. (2 min), Step 2: 94° C. (30 sec), Step 3: 55° C. (30 sec), Step 4: 68° C. (1 min), then repeat Steps 2 to 4 for a total of 33 cycles, then hold at 4° C.
10 μL of each PCR sample is electrophoretically separated on a 2% agarose E-gel for 14 minutes stained with double-stranded DNA (dsDNA) staining reagents (e.g., ethidium bromide) and visualized using a gel imager.

[2] = test system: full length SMN2 minigene mRNA containing SMN2 exon 7 (SMN2-A minigene); test: SMN2 minigene mRNA splicing RT-qPCR assay in cultured cells; assay type: cell-based, human; details: for SMN2 minigene FL mRNA relative to vehicle / SMN2 minigene alternative splicing / exon 7 inclusion: HEK293H cells with SMN2-A minigene, 24 hr, RT-qPCR, FIG. 3; for EC (1.5-fold): Homo sapiens, HEK293-H, HEK293H cells stably transfected with SMN2-A minigene, 24 hours, 7-point concentration curve, concentration giving 1.5-fold SMN2 full length mRNA vs vehicle, read-out: EC1.5x for production of full length SMN2 mRNA
Outline: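 HEK293H cells stably carrying the SMN2-A minigene were treated 24 h at 37 °C with a 7-point, 3.16-fold test compound series, in duplicate. Multiplex RT-qPCR measured exon 7-containing minigene FL mRNA, normalized to GAPDH and expressed relative to vehicle; EC1.5x is the concentration giving 1.5-fold FL mRNA.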

SMILES	SMN2 FL mRNA (gel band) [1]	SMN2 Δ7 mRNA (gel band) [1]	SMN2 alternative splicing [1]	SMN2 minigene FL mRNA relative to vehicle [2]	SMN2 minigene alternative splicing / exon 7 inclusion [2]	EC (1.5-fold) [2]
C[C@@H]1CN(c2ccc3oc(-c4cn5ccccc5n4)cc(=O)c3c2)C[C@H](C)N1 [Cpd 17, 6-[(3R,5S)-3,5-dimethylpiperazin-1-yl]-2-(imidazo[1,2-a]pyridin-2-yl)-4H-chromen-4-one]	progressively more SMN2 FL mRNA	less SMN2 Δ7 mRNA	correction of SMN2 alternative splicing	increased SMN2 minigene FL mRNA at low concentrations	correction of SMN2 minigene alternative splicing	1 to 3 µM
COc1ccc(-c2cc(=O)c3cc(N4CCN[C@@H](C)C4)ccc3o2)cc1F [Cpd 38, 2-(3-fluoro-4-methoxyphenyl)-6-[(3S)-3-methylpiperazin-1-yl]-4H-chromen-4-one]	progressively more SMN2 FL mRNA	less SMN2 Δ7 mRNA	correction of SMN2 alternative splicing	increased SMN2 minigene FL mRNA at low concentrations	correction of SMN2 minigene alternative splicing	≤ 0.1 µM
